Measurements: patent US4585756A, “Bovine GRF” (The Salk Institute for Biological Studies, priority 1983, dated 1986)

System: rat pituitary cells
Assay: in vitro release of growth hormone (ir GH by radioimmunoassay) from cultured rat pituitary cells, side-by-side with hGRF(1-44)-NH2
Type: cell-based
Protocol: To determine the effectiveness of the peptide to promote the release of growth hormone, in vitro assays are carried out using synthetic hGRF(1-44)-NH2 in side-by-side comparison with equimolar concentrations of the extracted and purified bGRF(1-44) of Example II. hGRF thus serves as a GRF Reference Standard having a known effectiveness to promote the release of growth hormone from rat pituitary cells. Cultures are used which include cells of rat pituitary glands removed some four to five days previously. Both cultures of a defined standard medium and cultures which are considered optimal for the secretion of growth hormone are used for the comparative testing, in the general manner described in Brazeau, et al. Regulatory Peptides, 1, 255, 1981. Incubation with the substance to be tested is carried out for 3 to 4 hours, and aliquots of the culture medium are removed and processed to measure their contents in immunoreactive GH(ir GH) by a well-characterized radioimmunoassay.

[1] = equimolar ratios, rat pituitary cell cultures, incubation 3 to 4 hours

SMILES: CC[C@H](C)[C@H](NC(=O)[C@H](C)NC(=O)[C@H](CC(=O)O)NC(=O)[C@H](C)NC(=O)[C@@H](N)Cc1ccc(O)cc1)C(=O)N[C@@H](Cc1ccccc1)C(=O)N[C@H](C(=O)N[C@@H](CC(N)=O)C(=O)N[C@@H](CO)C(=O)N[C@@H](Cc1ccc(O)cc1)C(=O)N[C@@H](CCCNC(=N)N)C(=O)N[C@@H](CCCCN)C(=O)N[C@H](C(=O)N[C@@H](CC(C)C)C(=O)NCC(=O)N[C@@H](CCC(N)=O)C(=O)N[C@@H](CC(C)C)C(=O)N[C@@H](CO)C(=O)N[C@@H](C)C(=O)N[C@@H](CCCNC(=N)N)C(=O)N[C@@H](CCCCN)C(=O)N[C@@H](CC(C)C)C(=O)N[C@@H](CC(C)C)C(=O)N[C@@H](CCC(N)=O)C(=O)N[C@@H](CC(=O)O)C(=O)N[C@H](C(=O)N[C@@H](CCSC)C(=O)N[C@@H](CC(N)=O)C(=O)N[C@@H](CCCNC(=N)N)C(=O)N[C@@H](CCC(N)=O)C(=O)N[C@@H](CCC(N)=O)C(=O)NCC(=O)N[C@@H](CCC(=O)O)C(=O)N[C@@H](CCCNC(=N)N)C(=O)N[C@@H](CC(N)=O)C(=O)N[C@@H](CCC(N)=O)C(=O)N[C@@H](CCC(=O)O)C(=O)N[C@@H](CCC(N)=O)C(=O)NCC(=O)N[C@@H](C)C(=O)N[C@@H](CCCCN)C(=O)N[C@H](C(=O)N[C@@H](CCCNC(=N)N)C(=O)N[C@@H](CC(C)C)C(N)=O)C(C)C)[C@@H](C)CC)C(C)C)[C@@H](C)O [bGRF(1-44)]
- intrinsic biological activity (GH release) compared with synthetic hGRF(1-44)-NH2 [1]: full intrinsic biological activity
- potency (GH release) compared with synthetic hGRF(1-44)-NH2 [1]: close to the same potency
- intrinsic activity relative to hGRF(1-44)-NH2 (multiple doses factorial design experiments): same intrinsic activity
- specific activity relative to hGRF(1-44)-NH2 (multiple doses factorial design experiments, % of hGRF(1-44)-NH2, confidence limits of 54-93%): about 70%
